Legend:
Format in all cases: biochemical
[1] = molecular target: T1, human KDR enzyme (Homo sapiens, UniProt P35968); test: KDR kinase inhibition, phosphorylation of PLCγ substrate, scintillation Flash Plate; settings: read-out: KDR, concentration that inhibits 50% of the kinase activity
T1 construct: The cytoplasmic domain (residues 790 to 1356) of the human KDR enzyme; GST; made in house; host or cells: SF21 insect cells (baculovirus, pFastBac)
Method: The inhibitory effect of the compounds is determined in an in vitro test of phosphorylation of substrate via a scintillation technique (96-well plate of basic Flash Plate type).
The cytoplasmic domain (residues 790 to 1356) of the human KDR enzyme was cloned in the form of a GST fusion in the pFastBac baculovirus expression vector. The protein was expressed in the SF21 cells, purified and activated by autophosphorylation. The substrate is composed of residues 658 to 850 of the PLCγ expressed and purified in the form of a GST fusion protein.
The KDR kinase activity is measured in the buffer 20 mM MOPS, 10 mM MgCl2, 10 mM MnCl2, 1 mM DTT, pH=7.4. The compounds are initially diluted in 100% DMSO, then prepared as a 10× solution in 30% DMSO/70% buffer. […] The radioactivity in each well is measured using a Trilux-βWallac radioactivity counter.
The background noise is determined by measuring the radioactivity in four different wells containing ATP (radiolabeled and cold) and the substrate, in the absence of enzyme and of compound. The control activity is measured in four different wells containing all the reagents, but in the absence of compound.
The inhibition of the KDR activity with the compound of the invention is expressed as a percentage of inhibition of the control activity determined in the absence of compound.

[2] = molecular target: PDGFRβ (Homo sapiens, UniProt P09619); test: PDGFR kinase phosphorylation activity by radioactive labeling; settings: read-out: PDGFRβ, concentration that inhibits 50% of the kinase activity
Method: 4. Screening of Molecules by Measuring, by Radioactive Labeling, the PDGFR Kinase Phosphorylation Activity in the Presence of PLCγ Substrate The test is carried out in a similar manner to that carried out with the FLT1 enzyme by using, instead of 13 nM of Flt1, 16 nM of PDGFR enzyme and mixed in the 96-well plates are 18 μl of GST-PDGFR enzyme at 4 mg/ml (for a purity of 80%) batch VLT802.

[3] = molecular target: FGFR1 (Homo sapiens, UniProt P11362); test: FGFR kinase phosphorylation activity by radioactive labeling; settings: read-out: FGFR1, concentration that inhibits 50% of the kinase activity
Method: 5. Screening of Molecules by Measuring, by Radioactive Labeling, the FGFR Kinase Phosphorylation Activity in the Presence of PLCγ Substrate
The test is carried out in a similar manner to that carried out with the FLT1 enzyme by using, instead of 13 nM of Flt1, 27 nM of FGFR enzyme and mixed in the 96-well plates are 18 μl of GST-FGFR enzyme at 1.1 mg/ml (for a purity of 100%): (batch JCE3666).

[4] = molecular target: VEGFR3 (Homo sapiens, UniProt P35916); test: VEGFR3 kinase inhibition (Table 1); settings: read-out: VEGFR3, concentration that inhibits 50% of the kinase activity
VEGFR3, sequence (P35916 25-1363, species assumed): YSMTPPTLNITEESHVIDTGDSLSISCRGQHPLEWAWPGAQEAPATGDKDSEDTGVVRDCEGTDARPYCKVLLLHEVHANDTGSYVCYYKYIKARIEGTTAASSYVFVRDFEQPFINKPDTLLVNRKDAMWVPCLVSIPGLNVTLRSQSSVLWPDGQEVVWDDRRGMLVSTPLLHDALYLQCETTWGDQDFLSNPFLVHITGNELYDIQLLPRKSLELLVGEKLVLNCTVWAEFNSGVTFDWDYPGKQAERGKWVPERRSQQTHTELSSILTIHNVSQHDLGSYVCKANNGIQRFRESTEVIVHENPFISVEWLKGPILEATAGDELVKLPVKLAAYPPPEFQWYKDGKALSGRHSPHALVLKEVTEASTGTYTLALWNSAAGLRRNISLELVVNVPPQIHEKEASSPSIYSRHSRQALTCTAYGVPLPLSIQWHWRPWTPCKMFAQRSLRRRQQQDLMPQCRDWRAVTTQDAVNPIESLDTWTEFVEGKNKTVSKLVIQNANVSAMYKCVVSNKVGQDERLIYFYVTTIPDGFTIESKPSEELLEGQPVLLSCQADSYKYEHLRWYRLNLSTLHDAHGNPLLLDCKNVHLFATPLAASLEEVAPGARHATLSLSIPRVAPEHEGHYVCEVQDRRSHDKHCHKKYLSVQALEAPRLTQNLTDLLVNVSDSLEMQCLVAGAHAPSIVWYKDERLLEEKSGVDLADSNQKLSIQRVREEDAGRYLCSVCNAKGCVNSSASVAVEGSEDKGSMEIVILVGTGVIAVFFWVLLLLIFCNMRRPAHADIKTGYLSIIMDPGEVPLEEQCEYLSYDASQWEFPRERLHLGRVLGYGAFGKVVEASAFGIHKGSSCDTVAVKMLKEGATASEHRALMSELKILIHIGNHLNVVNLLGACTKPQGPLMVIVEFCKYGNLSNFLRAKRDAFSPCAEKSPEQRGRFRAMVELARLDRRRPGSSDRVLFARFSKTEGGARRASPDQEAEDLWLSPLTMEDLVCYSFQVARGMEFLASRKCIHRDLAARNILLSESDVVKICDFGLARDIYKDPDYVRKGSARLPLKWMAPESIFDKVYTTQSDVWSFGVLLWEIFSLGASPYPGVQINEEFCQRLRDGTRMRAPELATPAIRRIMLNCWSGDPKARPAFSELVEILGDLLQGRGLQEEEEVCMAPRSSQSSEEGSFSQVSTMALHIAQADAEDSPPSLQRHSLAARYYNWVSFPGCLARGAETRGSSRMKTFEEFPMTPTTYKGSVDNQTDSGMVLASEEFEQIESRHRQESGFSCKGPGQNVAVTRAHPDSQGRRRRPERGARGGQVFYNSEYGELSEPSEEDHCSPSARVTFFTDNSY

FGFR1, sequence (P11362 22-822, species assumed): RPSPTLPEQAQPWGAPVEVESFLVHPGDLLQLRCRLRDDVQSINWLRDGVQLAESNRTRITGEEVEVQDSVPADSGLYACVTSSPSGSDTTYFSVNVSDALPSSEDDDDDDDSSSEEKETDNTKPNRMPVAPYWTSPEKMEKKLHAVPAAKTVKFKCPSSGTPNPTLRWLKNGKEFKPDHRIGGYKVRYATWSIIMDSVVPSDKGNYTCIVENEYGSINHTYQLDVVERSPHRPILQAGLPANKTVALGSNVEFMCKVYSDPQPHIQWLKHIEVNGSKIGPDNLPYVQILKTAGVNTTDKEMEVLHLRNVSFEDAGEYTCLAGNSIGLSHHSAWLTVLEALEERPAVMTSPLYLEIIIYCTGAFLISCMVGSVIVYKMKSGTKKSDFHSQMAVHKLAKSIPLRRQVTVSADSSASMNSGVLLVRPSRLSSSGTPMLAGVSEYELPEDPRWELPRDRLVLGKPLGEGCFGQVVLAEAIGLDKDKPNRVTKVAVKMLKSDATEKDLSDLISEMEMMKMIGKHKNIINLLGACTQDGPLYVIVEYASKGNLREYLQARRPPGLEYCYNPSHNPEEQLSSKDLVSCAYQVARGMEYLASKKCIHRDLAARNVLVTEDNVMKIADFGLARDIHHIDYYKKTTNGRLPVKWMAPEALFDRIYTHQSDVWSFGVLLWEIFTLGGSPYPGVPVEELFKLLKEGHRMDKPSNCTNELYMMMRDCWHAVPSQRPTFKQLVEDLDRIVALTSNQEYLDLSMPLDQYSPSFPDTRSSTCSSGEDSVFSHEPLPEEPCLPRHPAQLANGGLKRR
PDGFRβ, sequence (P09619 33-1106, species assumed): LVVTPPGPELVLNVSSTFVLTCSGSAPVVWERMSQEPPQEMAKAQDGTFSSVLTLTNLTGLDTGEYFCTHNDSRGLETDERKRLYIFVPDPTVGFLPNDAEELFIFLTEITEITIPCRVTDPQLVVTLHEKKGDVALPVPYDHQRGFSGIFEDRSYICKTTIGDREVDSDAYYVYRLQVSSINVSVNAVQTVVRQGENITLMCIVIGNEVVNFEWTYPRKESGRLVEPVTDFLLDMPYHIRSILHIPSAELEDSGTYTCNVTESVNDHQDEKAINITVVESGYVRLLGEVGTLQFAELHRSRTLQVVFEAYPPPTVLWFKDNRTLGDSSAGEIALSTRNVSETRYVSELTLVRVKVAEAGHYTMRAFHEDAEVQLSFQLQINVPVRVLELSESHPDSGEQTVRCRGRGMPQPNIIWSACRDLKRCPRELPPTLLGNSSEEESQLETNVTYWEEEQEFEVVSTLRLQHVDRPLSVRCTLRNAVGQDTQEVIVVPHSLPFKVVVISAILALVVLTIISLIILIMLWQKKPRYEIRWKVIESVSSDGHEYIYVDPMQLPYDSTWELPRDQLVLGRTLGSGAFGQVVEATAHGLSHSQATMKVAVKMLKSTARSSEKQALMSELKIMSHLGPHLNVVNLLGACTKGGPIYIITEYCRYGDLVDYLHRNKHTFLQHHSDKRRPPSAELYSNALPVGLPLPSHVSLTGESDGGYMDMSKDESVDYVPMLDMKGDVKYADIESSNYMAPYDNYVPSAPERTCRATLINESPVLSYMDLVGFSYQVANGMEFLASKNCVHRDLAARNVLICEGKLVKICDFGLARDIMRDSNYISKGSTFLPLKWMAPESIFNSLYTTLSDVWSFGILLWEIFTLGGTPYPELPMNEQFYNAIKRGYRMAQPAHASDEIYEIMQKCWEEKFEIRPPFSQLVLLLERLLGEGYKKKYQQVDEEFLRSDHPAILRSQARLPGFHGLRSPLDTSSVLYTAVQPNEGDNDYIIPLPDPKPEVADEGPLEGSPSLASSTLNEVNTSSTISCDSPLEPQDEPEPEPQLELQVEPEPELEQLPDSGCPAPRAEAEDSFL
T1 sequence (P35968 790-1356): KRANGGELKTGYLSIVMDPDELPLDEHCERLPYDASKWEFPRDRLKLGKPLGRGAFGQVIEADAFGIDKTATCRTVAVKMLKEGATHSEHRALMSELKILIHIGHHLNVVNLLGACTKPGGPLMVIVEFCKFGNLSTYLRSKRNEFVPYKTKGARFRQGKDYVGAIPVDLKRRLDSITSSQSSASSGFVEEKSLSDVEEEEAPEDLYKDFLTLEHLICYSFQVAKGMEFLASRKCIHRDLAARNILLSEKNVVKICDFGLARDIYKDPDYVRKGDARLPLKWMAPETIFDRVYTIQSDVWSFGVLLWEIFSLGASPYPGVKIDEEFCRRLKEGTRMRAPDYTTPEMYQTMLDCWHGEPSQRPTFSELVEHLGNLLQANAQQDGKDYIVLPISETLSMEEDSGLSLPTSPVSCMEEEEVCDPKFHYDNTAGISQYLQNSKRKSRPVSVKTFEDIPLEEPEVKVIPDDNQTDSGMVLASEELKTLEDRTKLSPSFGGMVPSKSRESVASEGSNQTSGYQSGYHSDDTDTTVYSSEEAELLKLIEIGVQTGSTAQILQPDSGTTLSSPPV

Compound | IC50 [1] [nM] | IC50 [2] [nM] | IC50 [3] [nM] | IC50 [4] [nM]
Cl.NC(=O)c1n[nH]cc1NCc1cc(F)cc(NC(=O)Nc2ccc(C(F)(F)F)cc2F)c1 [Example 2, 4-{3-[3-(2-Fluoro-4-trifluoromethylphenyl)ureido]-5-fluorobenzylamino}-1H-pyrazole-3-carboxamide hydrochloride] | 2 | 20 | 92 | 
Cl.NC(=O)c1n[nH]cc1NCc1cc(F)cc(NC(=O)Nc2ccc(C(F)(F)F)cc2Cl)c1 [Example 1, 4-{3-[3-(2-Chloro-4-trifluoromethylphenyl)ureido]-5-fluorobenzylamino}-1H-pyrazole-3-carboxamide hydrochloride] | 3 | 11 | 54 | 3

From patent publication US8367715B2, “Pyrazole derivatives, preparation thereof, and therapeutic use thereof” (priority 2009, dated 2013)
